Test results as given in ChEMBL document CHEMBL3425446, “Isolation, semi-synthesis and bio-evaluation of spatane derivatives from the brown algae Stoechospermum marginatum” (Bioorg Med Chem Lett, 2015).
≈ marks a conversion by molar mass, not a printed value. Calls of active or inactive are those of the source. The calls are words filed in the database; no cut-off is given here.

Columns and labels:
[1] = system: Escherichia coli; test: Antibacterial activity against Escherichia coli assessed as growth inhibition at 0.5 mg/ml after 24 hrs by well diffusion method; format: functional; details: read-out: DIZ
[2] = system: Bacillus subtilis; test: Antibacterial activity against Bacillus subtilis assessed as growth inhibition at 0.5 mg/ml after 24 hrs by well diffusion method; format: functional; details: read-out: DIZ
[3] = system: Micrococcus luteus; test: Antibacterial activity against Micrococcus luteus assessed as growth inhibition at 0.5 mg/ml after 24 hrs by well diffusion method; format: functional; details: read-out: DIZ
[4] = system: Klebsiella pneumoniae; test: Antibacterial activity against Klebsiella pneumoniae assessed as growth inhibition at 0.5 mg/ml after 24 hrs by well diffusion method; format: functional; details: read-out: DIZ
[5] = system: Escherichia coli; test: Antibacterial activity against Escherichia coli assessed as compound concentration required to complete growth inhibition at 8 hrs by tube dilution method; format: functional
[6] = system: Bacillus subtilis; test: Antibacterial activity against Bacillus subtilis assessed as compound concentration required to complete growth inhibition at 8 hrs by tube dilution method; format: functional
[7] = system: Micrococcus luteus; test: Antibacterial activity against Micrococcus luteus assessed as compound concentration required to complete growth inhibition at 8 hrs by tube dilution method; format: functional
[8] = system: Klebsiella pneumoniae; test: Antibacterial activity against Klebsiella pneumoniae assessed as compound concentration required to complete growth inhibition at 8 hrs by tube dilution method; format: functional
[9] = system: THP-1; test: Cytotoxicity against human THP1 cells assessed as decrease in cell number after 24 hrs by MTT assay; format: functional, cell-based; details: THP-1, 24 h
[10] = Cytotoxicity against mouse B16F10 cells assessed as decrease in cell number after 24 hrs by MTT assay; format: functional, cell-based; details: B16-F10, 24 h
[11] = system: COLO 205; test: Cytotoxicity against human COLO205 cells assessed as decrease in cell number after 24 hrs by MTT assay; format: functional, cell-based; details: COLO 205, 24 h
[12] = system: U-937; test: Cytotoxicity against human U937 cells assessed as growth inhibition at 200 ug/ml after 24 hrs by MTT assay; format: functional, cell-based
[13] = system: HL-60; test: Cytotoxicity against human HL60 cells assessed as growth inhibition at 200 ug/ml after 24 hrs by MTT assay; format: functional, cell-based
[14] = system: THP-1; test: Cytotoxicity against human THP1 cells assessed as growth inhibition at 200 ug/ml after 24 hrs by MTT assay; format: functional, cell-based
[15] = system: COLO 205; test: Cytotoxicity against human COLO205 cells assessed as growth inhibition at 200 ug/ml after 24 hrs by MTT assay; format: functional, cell-based
[16] = Cytotoxicity against human U937 cells assessed as decrease in cell number after 24 hrs by MTT assay; format: functional, cell-based; details: U-937, 24 h
[17] = system: B16-F10; test: Cytotoxicity against mouse B16F10 cells assessed as growth inhibition at 200 ug/ml after 24 hrs by MTT assay; format: functional, cell-based

Row | MIC [5] [µg/mL] | MIC [6] [µg/mL] | MIC [7] [µg/mL] | MIC [8] [µg/mL] | Compound | zone of inhibition at 500 µg/mL [1] [mm] | zone of inhibition at 500 µg/mL [2] [mm] | zone of inhibition at 500 µg/mL [3] [mm] | zone of inhibition at 500 µg/mL [4] [mm] | IC50 [9] [µg/mL] | IC50 [10] [µg/mL] | IC50 [11] [µg/mL] | growth inhibition (GI) [12] | growth inhibition (GI) [13] | growth inhibition (GI) [14] | growth inhibition (GI) [15] | IC50 [16] [µg/mL] | growth inhibition (GI) [17]
1 | 200 | 200 | 200 | 200 | C=C(C(O)/C=C/C(C)(O)CO)[C@@H]1C[C@@H](O)[C@@]2(C)[C@@H]1[C@@H]1[C@H](C)CC[C@@H]12 (mixture of isomers) | 11.7 | 12.7 | 12.3 | 12.3 | 55.6 | 196 | 17.4 | inactive | inactive |  |  |  | 
2 | 100 | 100 | 100 | 200 | C=C(C(/C=C/C(C)(O)COC(C)=O)OC(C)=O)[C@@H]1C[C@@H](O)[C@@]2(C)[C@@H]1[C@@H]1[C@H](C)CC[C@@H]12 (mixture of isomers) | 14.3 | 11.7 | 12.3 | 12.7 |  | 82 |  | inactive | inactive | inactive | inactive |  | 
3 | 200 (≈ 666 µM) | 400 (≈ 1330 µM) | 200 (≈ 666 µM) | 200 (≈ 666 µM) | C=C(CC(=O)C=C(C)C)[C@@H]1CC(=O)[C@@]2(C)[C@@H]1[C@@H]1[C@H](C)CC[C@@H]12 | 10 | 0 | 11.3 | 12.7 | 113 (≈ 377 µM) |  | 167 (≈ 557 µM) |  | inactive |  |  | 47.5 (≈ 158 µM) | inactive
